Laboratory results taken from PMC10572522, “A Designed Analog of an Antimicrobial Peptide, Crabrolin, Exhibits Enhanced Anti-Proliferative and In Vivo Antimicrobial Activity” (International Journal of Molecular Sciences, 2023).
Residues, ends and D or L forms follow the SMILES beside them.

Legend:
[1] = test system: human keratinocyte cell line HaCaT; assay: LDH cell cytotoxicity assay; format: cell-based; conditions: for LDH leakage: 25 μM, 24 h
Experimental: (§1) A Pierce LDH cytotoxicity assay kit (Thermo Scientific, Waltham, MA, USA) was applied for the LDH assay. An immortalized human microvascular endothelial cell line, HMEC-1, and a human keratinocyte cell line, HaCaT, were used in the LDH assay. A total of 8000 cells were placed in each well of the 96-well tissue culture plate with 100 µL of medium and incubated at 37 °C with 5% CO2 overnight. The cells were cultured with different drug concentrations ranging from 100 µM to 1µM for 24 h. […] of lysis buffer was prepared as the maximum LDH activity control. After incubating at 37 °C with 5% CO2 for 45 min, 50 µL of the sample was transferred into each well medium in a 96-well flat-bottom plate. Then, 50 µL of the reaction mixture was transferred to the wells and mixed. The 96-well plate was cultured for 30 min and protected from light at room temperature. Then, 50 µL of stop solution (supplied in the kit) was added to each well and mixed. The absorbance was detected at 490 nm and 680 nm.

[2] = test system: immortalized human microvascular endothelial cell line HMEC-1; assay: LDH cell cytotoxicity assay; format: cell-based
Experimental: as §1

S. aureus (NCTC 10788) = assay: Antimicrobial susceptibility assay (MIC/MBC); format: cell-based, Staphylococcus aureus; conditions: for MIC: MHB, 37 °C, 20 h
Experimental: (§2) Six bacteria were tested in this experiment to detect the antimicrobial effects of crabrolin and its derivatives, including S. aureus (NCTC 10788), MRSA (NCTC 12493), E. coli (ATCC 8739), K. pneumoniae (ATCC 43816), E. faecium (NTCC-12697), and P. aeruginosa (ATCC 9027). The tested bacteria were cultured in Mueller Hinton broth medium (MHB) with norfloxacin (20 mg/L) as a positive control. All bacteria were incubated at 37 °C overnight and diluted to 5 × 10^5 CFU/mL before treating with the peptides. Stock solutions of 51,200 µM peptides were prepared in phosphate-buffered saline (PBS) and further diluted by a factor of two to 100 µM. Next, 1 µL of each peptide solution was mixed with 99 µL of bacterial subculture in a 96-well plate, and the plate was incubated at 37 °C for 20 h. After culturing, the absorbance of each well in the 96-well plate was analyzed at 550 nm using a Synergy HT plate reader (BioliseBioTek, Winooski, VT, USA). […] Starting with the MIC value, 10 µL of the solution from each well was dripped onto Mueller Hinton agar (MHA) plates. The plates were cultured at 37 °C for 20 h. After culturing, the lowest concentration with no colony growth was regarded as the MBC.

E. coli (ATCC 8739) = assay: Antimicrobial susceptibility assay (MIC/MBC); format: cell-based, Escherichia coli; conditions: for MIC: MHB, 37 °C, 20 h
Experimental: as §2

[3] = test system: Galleria mellonella larvae; assay: Toxicity to Galleria mellonella larvae without infection; format: in vivo; conditions: highest dose (50 mg/kg)
[4] = test system: P. aeruginosa (ATCC 9027); assay: Antimicrobial susceptibility assay (MIC/MBC); format: cell-based, Pseudomonas aeruginosa; conditions: for MIC: MHB, 37 °C, 20 h
Experimental: as §2

[5] = test system: human glioblastoma astrocytoma U251MG; assay: Anti-proliferative assay (MTT); format: cell-based; conditions: 24 h
Experimental: (§3) The human non-small-cell lung cancer line, H838, the human prostate carcinoma cell line, PC-3, the human glioblastoma astrocytoma, U251MG, the human breast cancer cell line, MCF-7, the human colorectal carcinoma cell line, HCT116, and the human keratinocyte cell line, HaCaT, were used to detect the anti-proliferative effects of the crabrolin and its derivatives in vitro. A total of 8000 cells were seeded in each well of a 96-well plate. After the cells had adhered to the wall, the cells were starved for 4 h. After the starvation, the cells were incubated with different concentrations of the drugs, ranging from 100 µM to 1 nM, for 24 h, with 0.1% Triton X-100 used as a positive control. Next, 10 µL of MTT (3-(4,5-dimethylthiazol-2-yl)-2,5-diphenyltetrazolium bromide) solution (5 mg/mL) was added to each well of the 96-well plate. After 2 h of incubation, 100 μL of DMSO-superseded medium was added to each well to dissolve the formazan crystals. Finally, the absorbance was detected using a Synergy HT plate reader at 570 nm.

[6] = test system: human keratinocyte cell line HaCaT; assay: Anti-proliferative assay (MTT); format: cell-based; conditions: HaCaT (normal keratinocytes), 24 h
Experimental: as §3

[7] = test system: human prostate carcinoma cell line PC-3; assay: Anti-proliferative assay (MTT); format: cell-based; conditions: PC3, MTT, 24 h
Experimental: as §3

[8] = test system: human non-small-cell lung cancer line H838; assay: Anti-proliferative assay (MTT); format: cell-based; conditions: 24 h
Experimental: as §3

[9] = test system: human colorectal carcinoma cell line HCT-116; assay: Anti-proliferative assay (MTT); format: cell-based; conditions: HCT-116, MTT, 24 h
Experimental: as §3

[10] = test system: human breast cancer cell line MCF-7; assay: Anti-proliferative assay (MTT); format: cell-based; conditions: MCF-7, MTT, 24 h
Experimental: as §3

E. faecium (NTCC 12697) = assay: Antimicrobial susceptibility assay (MIC/MBC); format: cell-based, Enterococcus faecium; conditions: for MIC: MHB, 37 °C, 20 h
Experimental: as §2

Row | SMILES | LDH leakage [1] | MBC (S. aureus (NCTC 10788)) | MIC (S. aureus (NCTC 10788)) | MBC (E. coli (ATCC 8739)) | MIC (E. coli (ATCC 8739)) | Death of healthy larvae [3] | MBC [4] | MIC [4] | IC50 [5] | IC50 [6] | IC50 [7] | IC50 [8] | IC50 [9] | IC50 [10] | MBC (E. faecium (NTCC 12697)) | MIC (E. faecium (NTCC 12697)) | further results
1 | CC[C@H](C)[C@H](NC(=O)[C@H](CC(C)C)NC(=O)[C@@H]1CCCN1C(=O)[C@H](CC(C)C)NC(=O)[C@@H](N)Cc1ccccc1)C(=O)N[C@@H](CC(C)C)C(=O)N[C@@H](CCCNC(=N)N)C(=O)N[C@@H](CCCCN)C(=O)N[C@H](C(=O)N[C@H](C(=O)N[C@H](C(=O)N[C@@H](C)C(=O)N[C@@H](CC(C)C)C(N)=O)[C@@H](C)O)C(C)C)[C@@H](C)CC [Crabrolin, FLPLILRKIVTAL-NH2] (H-FLPLILRKIVTAL-NH2) | ~20% | 4 µM | 2 µM | 128 µM | 32 µM | did not result in the death of healthy larvae | 256 µM | 128 µM | 20.1 µM | 31.2 µM | 32.1 µM | 27.7 µM | 8.54 µM | 26.5 µM | 64 µM | 16 µM | Cytotoxicity (LDH release) ([1]; 100 μM): showed cytotoxicity; Cytotoxicity (LDH release) ([2]; HMEC-1, 100 μM): showed cytotoxicity
2 | CC[C@H](C)[C@H](NC(=O)[C@H](CCCNC(=N)N)NC(=O)[C@@H]1CCCN1C(=O)[C@H](CC(C)C)NC(=O)[C@@H](N)Cc1ccccc1)C(=O)N[C@@H](CC(C)C)C(=O)N[C@@H](CCCNC(=N)N)C(=O)N[C@@H](CCCCN)C(=O)N[C@H](C(=O)N[C@H](C(=O)N[C@@H](CCCNC(=N)N)C(=O)N[C@@H](C)C(=O)N[C@@H](CC(C)C)C(N)=O)C(C)C)[C@@H](C)CC [Crabrolin-TR, FLPRILRKIVRAL-NH2] (H-FLPRILRKIVRAL-NH2) | ~20% | 2 µM | 1 µM | 4 µM | 2 µM | did not result in the death of healthy larvae | 8 µM | 4 µM | 12.4 µM | 20.9 µM | 3.94 µM | 4.64 µM | 2.81 µM | 3.46 µM | 8 µM | 4 µM | Cytotoxicity (LDH release) ([2]; HMEC-1, 25 μM): cytotoxic; IC50 ([5]; listed as crabrolin-TR): > 10 µM; IC50 ([7]; listed as crabrolin-TR): < 10 µM; IC50 ([8]; listed as crabrolin-TR): < 10 µM; IC50 ([10]; listed as crabrolin-TR): < 10 µM
